Assay results taken from patent publication US5198445A, “Composition and use of substituted 3-thio-2-propynenitriles as industrial antimicrobials” (The Dow Chemical Company, priority 1992, dated 1993).
Converted amounts (≈) assume the structure as drawn. Like-named read-outs stand apart in the source and are kept apart here.

Assays:
[1] = tested on: mixture of the bacterial organisms listed in Table II; experiment: Multiple Challenge Test in styrene-butadiene latex; assay type: cell-based, bacteria listed in Table II; details: Styrene-Butadiene Latex Formulation; 10 challenges
Method: (§1) Additionally, the ability of the compounds of Table I to serve as preservatives in a variety of formulated industrial, household, and commercial products is tested using a Multiple Challenge Test Protocol. In this test, the formulations include a styrene-butadiene latex, a tape joint, a hand lotion, and a shampoo. The styrene-butadiene latex test formulation used is Latex DL 238A, available from The Dow Chemical Company. The compositions of the tape joint, hand lotion and shampoo test formulations can be found in Tables V-VII.
(§2) The formulations are separated into 50 g aliquots and placed in sterile bottles. An appropriate amount of a fresh one percent stock solution of the test compound in acetone-water is added to achieve the desired final concentrations. A small portion of each of the test formulations is streaked onto Tryptic Soy Agar (TSA) petri plates using sterile cotton swabs to ensure that the formulations are sterile. If the formulation is sterile, then it is inoculated with 0.1 ml of a mixture of equal aliquots of the 24 hour cultures of each of the bacterial organisms listed in Table II. The test formulations are then incubated at 30° C. After 24 hours, each sample is streaked onto a TSA petri plate using a sterile swab. All plates are then incubated at 30° C. for 48 hours and then rated for microbial growth using the rating system listed in Table VIII. Samples with a rating of 3 or less are reinoculated as described in the procedure for the first inoculation. Samples with a rating of 4 or greater are not reinoculated but after another 24 hours are restreaked on TSA agar.
(§3) The normal interpretation of the results is that a concentration of the antimicrobial being tested is considered to be effective if no ratings greater than a 3 are observed throughout the 10 challenges. The Minimum Effective Concentration (MEC), which is used to compare the activity of the antimicrobial additives in the end-use formulations, is the minimum level that is effective under the conditions of the Multiple Challenge Test.

[2] = tested on: Saccharomyces cerevisiae (Sc); experiment: MIC in malt yeast agar, Saccharomyces cerevisiae; assay type: cell-based, Saccharomyces cerevisiae ATCC 4105; details: read-out: Minimum Inhibitory Concentration, Sc
Method: (§4) The minimum inhibitory concentration (MIC) for the compounds listed in Table I is determined for 9 bacteria, using nutrient agar, and 7 yeast and fungi, using malt yeast agar. A one percent solution of the test compound is prepared in a mixture of acetone and water. Nutrient agar is prepared at pH 6.8, representing a neutral medium, and at pH 8.2, representing an alkaline medium. The nutrient agars are prepared by adding 23 g of nutrient agar to one-liter of deionized water. In addition, the alkaline medium is prepared by adjusting a 0.04M solution of N-[tris-(hydroxymethyl)methyl]-glycine buffered deionized water with concentrated sodium hydroxide to a pH of […]. Malt yeast agar is prepared by adding 3 g yeast extract and 45 g malt agar per liter of deionized water. The specific agar is dispensed in 30 ml aliquots into 25×200 mm test tubes, capped and autoclaved for 15 minutes at 115° C. The test tubes containing the agar are cooled in a water bath until the temperature of the agar is 48° C. Then, an appropriate amount of the one percent solution of the test compound is added (except in the controls where no compound is added) to the respective test tubes so that the final concentrations are 500, 250, 100, 50, 25, 10, 5, 2.5, 1.0 and zero parts per million of the test compound in the agar, thus having a known concentration of test compound dispersed therein. The contents of the test tubes are then transferred to respective petri plates. After drying for 24 hours, the petri plates containing nutrient agar are inoculated with bacteria and those containing malt yeast agar are inoculated with yeast and fungi.
(§5) The inoculation with the yeast and fungi is accomplished as follows. Cultures of yeast and fungi are incubated for seven days on malt yeast agar at 30° C. These cultures are used to prepare suspensions by the following procedure. A suspension of each organism is prepared by adding 10 ml of sterile saline and 10 microliters of octylphenoxy polyethoxy ethanol (TRITON® X-100, a trademark of Rohm & Haas Company) to the agar slant of yeast or fungi. The sterile saline/octylphenoxy polyethoxy ethanol solution is then agitated with a sterile swab to suspend the microorganism grown on the slant. Each resulting suspension is diluted into sterile saline (1 part suspension: 9 parts sterile saline). Aliquots of these dilutions are placed in individual wells of Steer's Replicator and petri plates inoculated as previously described. The petri plates are incubated at 30° C. and read after 48 hours for yeast and 72 hours for fungi.
(§6) Table II lists the bacteria, yeast and fungi used in the MIC test described above along with their respective American Type Culture Collection (ATCC) identification numbers.
(§7) The following MIC and MEC antimicrobial tests, whose results are shown in Tables XIII-XVII, are performed using the same methods as described hereinabove.

Aspergillus niger (An) = experiment: MIC in malt yeast agar, Aspergillus niger; assay type: cell-based, Aspergillus niger ATCC 16404; details: read-out: Minimum Inhibitory Concentration, An
Method: as §4, §5, §6, §7

[3] = tested on: Staphylococcus aureus (Sa); experiment: MIC in nutrient agar, Staphylococcus aureus; assay type: cell-based, Staphylococcus aureus ATCC 6538
Method: as §4
(§8) The inoculation with bacteria is accomplished by using the following procedure. Twenty-four hour-cultures of each of the bacteria are prepared by incubating the respective bacteria in tubes containing nutrient broth for 24 hours at 30° C. in a shaker. Dilutions of each of the 24 hour-cultures are made so that nine separate suspensions (one for each of the nine test bacteria) are made, each containing 10^8 colony forming units (CFU) per ml of suspension of a particular bacteria. Aliquots of 0.3 ml of each of the bacterial suspensions are used to fill the individual wells of Steer's Replicator. For each microbial suspension, 0.3 ml was used to fill three wells (i.e., three wells of 0.3 ml each) so that for the nine different bacteria, 27 wells are filled. The Steer's Replicator is then used to inoculate both the neutral and alkaline pH nutrient agar petri plates.
(§9) The inoculated petri plates are incubated at 30° C. for 48 hours and then read to determine if the test compound which is incorporated into the agar prevented growth of the respective bacteria.
as §6, §7

Bacillus subtilis (Bs) = experiment: MIC in nutrient agar, Bacillus subtilis; assay type: cell-based, Bacillus subtilis ATCC 8473
Method: as §4, §8, §9, §6, §7

[4] = tested on: Klebsiella pneumoniae (Kp); experiment: MIC in nutrient agar, Klebsiella pneumoniae; assay type: cell-based, Klebsiella pneumoniae ATCC 8308
Method: as §4, §8, §9, §6, §7

Proteus vulgaris (Pv) = experiment: MIC in nutrient agar, Proteus vulgaris; assay type: cell-based, Proteus vulgaris ATCC 881
Method: as §4, §8, §9, §6, §7

[5] = tested on: mixture of the bacterial organisms listed in Table II; experiment: Multiple Challenge Test in shampoo formulation; assay type: cell-based, bacteria listed in Table II; details: 10 challenges
Method: as §1, §2, §3

Escherichia coli (Ec) = experiment: MIC in nutrient agar, Escherichia coli; assay type: cell-based, Escherichia coli ATCC 11229
Method: as §4, §8, §9, §6, §7

[6] = Staphylococcus aureus, pH 6.8; read-out: Minimum Inhibitory Concentration, Sa
[7] = Staphylococcus aureus, pH 8.2, read-out: Minimum Inhibitory Concentration, Sa
[8] = Bacillus subtilis, pH 6.8; read-out: Minimum Inhibitory Concentration, Bs
[9] = Bacillus subtilis, pH 8.2, read-out: Minimum Inhibitory Concentration, Bs
[10] = pH 6.8, read-out: Minimum Inhibitory Concentration, Kp
[11] = pH 8.2, read-out: Minimum Inhibitory Concentration, Kp
[12] = pH 6.8, read-out: Minimum Inhibitory Concentration, Pv
[13] = pH 8.2, read-out: Minimum Inhibitory Concentration, Pv
[14] = Escherichia coli, pH 6.8; read-out: Minimum Inhibitory Concentration, Ec
[15] = Escherichia coli, pH 8.2, read-out: Minimum Inhibitory Concentration, Ec
[16] = Staphylococcus aureus, pH 6.8, read-out: Minimum Inhibitory Concentration, Sa
[17] = Staphylococcus aureus, pH 8.2; read-out: Minimum Inhibitory Concentration, Sa
[18] = Bacillus subtilis, pH 6.8, read-out: Minimum Inhibitory Concentration, Bs
[19] = Bacillus subtilis, pH 8.2; read-out: Minimum Inhibitory Concentration, Bs
[20] = Escherichia coli, pH 8.2; read-out: Minimum Inhibitory Concentration, Ec

| Structure (SMILES) | MEC [1] [ppm] | MIC ([2]; malt yeast agar) [µg/mL] | MIC (Aspergillus niger (An); malt yeast agar) [µg/mL] | MIC [3, 6] [µg/mL] | MIC [3, 7] [µg/mL] | MIC (Bacillus subtilis (Bs); [8]) [µg/mL] | MIC (Bacillus subtilis (Bs); [9]) [µg/mL] | MIC [4, 10] [µg/mL] | MIC [4, 11] [µg/mL] | MIC (Proteus vulgaris (Pv); [12]) [µg/mL] | MIC (Proteus vulgaris (Pv); [13]) [µg/mL] | MEC [5] [ppm] | MIC (Escherichia coli (Ec); [14]) [µg/mL] | MIC (Escherichia coli (Ec); [15]) [µg/mL] | MIC [2] [µg/mL] | MIC [3, 16] [µg/mL] | MIC [3, 17] [µg/mL] | MIC (Bacillus subtilis (Bs); [18]) [µg/mL] | MIC (Bacillus subtilis (Bs); [19]) [µg/mL] | MIC (Escherichia coli (Ec); [20]) [µg/mL] | further results |
| --- | --- | --- | --- | --- | --- | --- | --- | --- | --- | --- | --- | --- | --- | --- | --- | --- | --- | --- | --- | --- | --- |
| CCSC#CC#N [B, 3-ethylthio-2-propynenitrile] | 25 | < 1 | 2.5 (≈ 22.5 µM) | 5 (≈ 45 µM) | 10 (≈ 90 µM) | 25 (≈ 225 µM) | 25 (≈ 225 µM) | 5 (≈ 45 µM) | 5 (≈ 45 µM) | < 1 | 5 (≈ 45 µM) | 25 | 5 (≈ 45 µM) | 10 (≈ 90 µM) | – | – | – | – | – | – | – |
| N#CC#CSC1CCCC1 [C, 3-cyclopentylthio-2-propynenitrile] | 100 | – | 2.5 (≈ 16.5 µM) | – | – | – | – | < 10 | 25 (≈ 165 µM) | < 10 | < 10 | 100 | < 10 | – | 2.5 (≈ 16.5 µM) | < 10 | < 10 | 100 (≈ 661 µM) | 250 (≈ 1650 µM) | < 10 | – |
| CSC#CC#N [Compound A, 3-methylthio-2-propynenitrile] | 10 | 0.5 (≈ 5.15 µM) | 2.5 (≈ 25.7 µM) | 2.5 (≈ 25.7 µM) | – | 2.5 (≈ 25.7 µM) | – | 2.5 (≈ 25.7 µM) | 10 (≈ 103 µM) | < 1 | 2.5 (≈ 25.7 µM) | 10 | 2.5 (≈ 25.7 µM) | – | – | – | 5 (≈ 51.5 µM) | – | 5 (≈ 51.5 µM) | 5 (≈ 51.5 µM) | Minimum Inhibitory Concentration, Sa ([3]; pH 8.2): 5 ppm; Minimum Inhibitory Concentration, Bs (Bacillus subtilis (Bs); pH 8.2): 5 ppm; Minimum Inhibitory Concentration, Ec (Escherichia coli (Ec); pH 8.2): 5 ppm |
| CSC=C(Cl)C#N [Compound G, 2-chloro-3-(methylthio)-2-propenenitrile] | – | – | – | – | 5 (≈ 37.4 µM) | – | 10 (≈ 74.8 µM) | 50 (≈ 374 µM) | 10 (≈ 74.8 µM) | 50 (≈ 374 µM) | 5 (≈ 37.4 µM) | – | – | 10 (≈ 74.8 µM) | 100 (≈ 748 µM) | 50 (≈ 374 µM) | – | 75 (≈ 561 µM) | – | – | MIC (Aspergillus niger (An)): 50 µg/mL (≈ 374 µM); MIC (Escherichia coli (Ec); Escherichia coli, pH 6.8, read-out: Minimum Inhibitory Concentration, Ec): 50 µg/mL (≈ 374 µM) |
| N#CC#CSc1ccc(Cl)cc1 [D, 3-(4-chlorophenylthio)-2-propynenitrile] | 100 | < 1 | < 1 | < 10 | – | < 10 | – | < 10 | 50 (≈ 258 µM) | < 10 | 50 (≈ 258 µM) | 100 | < 10 | – | – | – | 25 (≈ 129 µM) | – | 50 (≈ 258 µM) | 50 (≈ 258 µM) | – |
